Assay results: patent US11655459B2, “Methods for reprogramming somatic cells” (Whitehead Institute for Biomedical Research, priority 2003, dated 2023)
“And” between values parts separate entries of the source, which are not always exact repeats. Equal values may be shown once.

System: fibroblasts derived from tail biopsies of mice that carry the inducible Oct4 transgene
Assay: Nuclear transfer experiment: in vitro development of clones derived from Oct4-induced fibroblasts
Format: cell-based, mouse
Experimental: Nuclear transfer was performed on fibroblasts derived from tail biopsies of mice that carry the inducible Oct4 transgene. Dox induction was for 24 hours prior to nuclear transfer. Cloned embryos were then activated and cultured to the blastocyst stage to derive ES cells as described previously (Hochedlinger and Jaenisch, 2002). […] [table]

[1] = Dox induction 24 hours prior to nuclear transfer, fraction of eggs with pronucleus formation, single experiment, listed as Dox
[2] = Oct4 induced, Expt. #3 and #4 together

## C[C@H]1c2cccc(O)c2C(=O)C2=C(O)[C@]3(O)C(=O)C(C(N)=O)=C(O)[C@@H](N(C)C)[C@@H]3[C@@H](O)[C@@H]21 [doxycycline]
[1]
  Blastocysts (% PN): 27% and 21%
  ES lines (% PN): 5% and 9%
Dox induction 24 hours prior to nuclear transfer, single experiment
  Blastocysts (number): 10
Dox induction 24 hours prior to nuclear transfer, single experiment, listed as Dox
  ES lines (number): 2 and 4
[2]
  Blastocysts (% PN), average of experiments: 24%
  ES lines (% PN), average of experiments: 7%
